Measured values: patent US10942107B2, “Methods of screening for mild skin cleanser” (The Procter & Gamble Company, priority 2017, dated 2021)

What was measured:
[1] = known in the art; cited from earlier work
[2] = tested on: skin; assay: Surfactant skin penetration at 5 depths after forearm controlled application technique (FCAT), liquid chromatography and mass spectrometry; assay type: in vivo
Excerpt: One way to test the potential mildness of a surfactant is by looking at how it interacts with the skin. One type of interaction with the skin is skin penetration. Skin penetration looks at how much of the surfactant will penetrate into the skin. It is believed that the more the surfactant penetrates into the skin, the less mild the composition. Originally, this was believed to be largely driven by the structure of the surfactant, itself. Now, it is believed that the phase behavior associated with the surfactant can also have an impact on the penetration of the surfactant, and thus, its mildness. One surfactant reviewed for mildness is sodium trideceth-2 sulfate. […] In FIG. 1, the lighter gray (left hand column) is sodium trideceth-2 sulfate deposited on skin in a vesicle form, specifically a lamellar form as part of Composition F (below), while the darker gray (right hand column) is sodium trideceth-2 sulfate deposited in a micellar form as part of Composition E (below). The compositions were applied in accordance with a forearm controlled application technique (FCAT), a description of which is found in Ertel et al., “A forearm controlled application technique for estimating the relative mildness of personal cleansing products,” J. Soc. Cosmet. […] The levels of the target materials on the skin are then measured with a combination of liquid chromatography and mass spectrometry.

## cocamide monoethanolamine
[1]
  HLB value: 16.8

## cocamidopropyl betaine
[2]; in vivo
  penetration of the surfactant into skin (concentration at depth 01 to depth 05): A similar result was seen

## sodium trideceth-2 sulfate
[2]; deposited from micellar composition (Composition E) versus lamellar composition (Composition F), FCAT, FIGS. 1-3
  penetration of the surfactant into skin (concentration at depth 01 to depth 05): penetrates the skin at a greater concentration at all 5 depths measured
